Results on 20 compounds are retold here after patent publication US8809352B2, “Sulfonamides as inhibitors of Bcl-2 family proteins for the treatments of cancer” (Novartis AG, priority 2009, dated 2014).

In general, IC50 refers to the concentration that inhibits the measured activity by half.

Each structure is given as a SMILES string.

BCL2, sequence (P10415 whole entry): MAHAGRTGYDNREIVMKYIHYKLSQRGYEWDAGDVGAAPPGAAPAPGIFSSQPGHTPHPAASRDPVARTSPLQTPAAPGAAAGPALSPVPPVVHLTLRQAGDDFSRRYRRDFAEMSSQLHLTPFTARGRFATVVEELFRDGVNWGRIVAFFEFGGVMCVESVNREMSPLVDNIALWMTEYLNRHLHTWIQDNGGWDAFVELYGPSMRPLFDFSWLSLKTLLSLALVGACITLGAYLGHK

In the assay the target is BCL2 (Homo sapiens, UniProt P10415). Put plainly: Biacore SPR solution inhibition assay of BCL-2 binding to peptide derivatized sensor surfaces. Particulars: SPR competition; 56 nM BCL2 pre-equilibrated with compound one hour; biotinylated BAK, BAD and NOXA peptide surfaces; 25° C. In outline:
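Solution-competition SPR at 25 °C in HEPES pH 7.4 buffer with 1.25 mM DTT and 3% DMSO: compounds (6-point threefold series, 16 μM to 0.004 nM) pre-equilibrated 1 h with 56 nM BCL2, then injected over captured biotinylated BAK, BAD and NOXA peptide surfaces. Binding levels relative to BCL2-only controls gave % inhibition.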
(In general: In SPR one partner is held on a chip, and binding of the other changes the refractive index at the surface.)
Consider `CN1CCN(CC[C@H](CSc2ccccc2F)Nc2ccc(S(=O)(=O)Nc3ncnc4c3CCN(C3CCN(CC5=C(c6ccc(Cl)cc6)CC(C)(C)CC5)CC3)C4)cc2S(=O)(=O)C(F)(F)F)CC1` [Example 55, (R)-N-(7-(1-((2-(4-chlorophenyl)-4,4-dimethylcyclohex-1-enyl)methyl)piperidin-4-yl)-5,6,7,8-tetrahydropyrido[3,4-d]pyrimidin-4-yl)-4-(1-(2-fluorophenylthio)-4-(4-methylpiperazin-1-yl)butan-2-ylamino)-3-(trifluoromethylsulfonyl)benzenesulfonamide], for which the IC50 came out at 35 nM.
The figure for `CN(C)CC[C@H](CSc1ccccc1)Nc1ccc(S(=O)(=O)Nc2ncnc3c2CCN(C2CCN(Cc4cc(F)ccc4-c4ccc(Cl)cc4)CC2)C3)cc1S(=O)(=O)C(F)(F)F` [Example 20] is 22 nM; for `[2H]C1(N2CCc3c(ncnc3NS(=O)(=O)c3ccc(N[C@H](CCN4CCN(C)CC4)CSc4ccccc4F)c(S(=O)(=O)C(F)(F)F)c3)C2)CCN(CC2=C(c3ccc(Cl)cc3)CC(C)(C)CC2)CC1` [Example 83] it is 28 nM.
The figure for `CC(c1ccccc1-c1ccc(Cl)cc1)N1CCC(N2CCc3c(ncnc3NS(=O)(=O)c3ccc(N[C@H](CCN4CCOCC4)CSc4ccccc4)c(S(=O)(=O)C(F)(F)F)c3)C2)CC1` (stereo partly drawn) [Example 42, N-(7-(1-(1-(4′chlorobiphenyl-2-yl)ethyl)piperidin-4-yl)-5,6,7,8-tetrahydropyrido[3,4-d]pyrimidin-4-yl)-4-((R)-4-morpholino-1-(phenylthio)butan-2-ylamino)-3-(trifluoromethylsulfonyl)benzenesulfonamide] is 97 nM; for `[2H]C1(N2CCc3c(ncnc3NS(=O)(=O)c3ccc(N[C@H](CCN4CCOCC4)CSc4ccccc4)c(S(=O)(=O)C(F)(F)F)c3)C2)CCN([C@@H](C)c2ccccc2-c2ccc(Cl)cc2)CC1` [Example 88] it is 2310 nM.
With `CCC[C@H](CSc1ccccc1)Nc1ccc(S(=O)(=O)Nc2ncnc3c2CCN(C2CCN(CC4=C(c5ccc(Cl)cc5)CC(C)(C)CC4)CC2)C3)cc1S(=O)(=O)C(F)(F)F` [Example 59, N-(7-(1-((2-(4-chlorophenyl)-4,4-dimethylcyclohex-1-enyl)methyl)piperidin-4-yl)-5,6,7,8-tetrahydropyrido[3,4-d]pyrimidin-4-yl)-4-(1-(phenylthio)pentan-2-ylamino)-3-(trifluoromethylsulfonyl)benzenesulfonamide] the figure was 579 nM; with `C[C@H](CSc1ccccc1)Nc1ccc(S(=O)(=O)Nc2ncnc3c2CCN(C2CCN(Cc4ccccc4-c4ccc(Cl)cc4)CC2)C3)cc1S(=O)(=O)C(F)(F)F` [Example 44, N-(7-(1((4′-chlorobiphenyl-2-yl)-methyl)piperidin-4-yl)-5,6,7,8-tetrahydropyrido[3,4-d]pyrimidin-4-yl)-4-(1-(phenylthio)propan-2-ylamino)-3-(trifluoromethylsulfonyl)benzenesulfonamide], 235 nM.
For `[2H]C1(N2CCc3c(ncnc3NS(=O)(=O)c3ccc(N[C@H](CCN4CCN(CC)CC4)CSc4ccccc4)c(S(=O)(=O)C(F)(F)F)c3)C2)CCN(Cc2cc(F)ccc2-c2ccc(Cl)cc2)CC1` [Example 89, (R)-N-(7-(1-((4′-chloro-4-fluorobiphenyl-2-yl)methyl)-4-deuteropiperidin-4-yl)-5,6,7,8-tetrahydropyrido[3,4-d]pyrimidin-4-yl)-4-(4-(4-ethylpiperazin-1-yl)-1-(phenylthio)butan-2-ylamino)-3-(trifluoromethylsulfonyl)benzenesulfonamide], the 50% inhibitory concentration (IC50) was 35 nM.
The figure for `[2H]C1(N2CCc3c(ncnc3NS(=O)(=O)c3ccc(N[C@H](CCN(C)C)CSc4ccccc4)c(S(=O)(=O)C(F)(F)F)c3)C2)CCN(Cc2cc(F)ccc2-c2ccc(Cl)cc2)CC1` [Example 73, (R)-N-(7-(1-((4′-chloro-4-fluorobiphenyl-2-yl)methyl)-4-deuteropiperidin-4-yl)-5,6,7,8-tetrahydropyrido[3,4-d]pyrimidin-4-yl)-4-(4-(dimethylamino)-1-(phenylthio)butan-2-ylamino)-3-(trifluoromethylsulfonyl)benzene sulfonamide] is 26 nM; for `[2H]C1(N2CCc3c(nc(C(F)(F)F)nc3NS(=O)(=O)c3ccc(N[C@H](CCN4CCN(C)CC4)CSc4ccccc4F)c(S(=O)(=O)C(F)(F)F)c3)C2)CCN([C@@H](C)c2ccccc2-c2ccc(Cl)cc2)CC1` [Example 74] it is 41 nM.
The figure for `O=S(=O)(Nc1nnc2n1CCN(C1CCN(Cc3ccccc3-c3ccc(Cl)cc3)CC1)CC2)c1ccc(N[C@H](CCN2CCOCC2)CSc2ccccc2)c(S(=O)(=O)C(F)(F)F)c1` [Example 92, N-{6-[1-(4′-Chloro-biphenyl-2-ylmethyl)-piperidin-4-yl]-5,6,7,8-tetrahydro-4H-1,2,3a,6-tetraaza-azulen-3-yl}-4-((R)-3-morpholin-4-yl-1-phenylsulfanylmethyl-propylamino)-3-trifluoromethanesulfonyl-benzenesulfonamide] is 194 nM; for `CN(C)CC[C@H](CSc1ccc(Cl)c(Cl)c1)Nc1ccc(S(=O)(=O)Nc2ncnc3c2CCN(C2CCN(Cc4ccccc4-c4ccc(Cl)cc4)CC2)C3)cc1S(=O)(=O)C(F)(F)F` [Example 39, N-{7-[1-(4′-Chloro-biphenyl-2-ylmethyl)-piperidin-4-yl]-5,6,7,8-tetrahydro-pyrido[3,4-d]pyrimidin-4-yl}-4-[(R)-1-(3,4-dichloro-phenylsulfanylmethyl)-3-dimethylamino-propylamino]-3-trifluoromethanesulfonyl-benzenesulfonamide] it is 41 nM.
With `CN(C)CC[C@H](CSc1ccccc1)Nc1ccc(S(=O)(=O)Nc2ncnc3c2CCN(C2CCN(Cc4ccccc4-c4ccc(C(F)(F)F)cc4)CC2)C3)cc1S(=O)(=O)C(F)(F)F` [Example 99, (R)-4-(4-(dimethylamino)-1-(phenylthio)butan-2-ylamino)-N-(7-(1-((4′-(trifluoromethyl)biphenyl-2-yl)-methyl)piperidin-4-yl)-5,6,7,8-tetrahydropyrido[3,4-d]pyrimidin-4-yl)-3-(trifluoromethylsulfonyl)benzenesulfonamide] the figure was 37 nM; with `COc1ccc(-c2ccc(Cl)cc2)c(CN2CCC(N3CCc4c(ncnc4NS(=O)(=O)c4ccc(N[C@H](CCN(C)C)CSc5ccccc5)c(S(=O)(=O)C(F)(F)F)c4)C3)CC2)c1` [Example 36, (R)-N-(7-(1-((4′-chloro-4-methoxybiphenyl-2-yl)methyl)piperidin-4-yl)-5,6,7,8-tetrahydropyrido[3,4-d]pyrimidin-4-yl)-4-(4-(dimethylamino)-1-(phenylthio)butan-2-ylamino)-3-(trifluoromethylsulfonyl)benzenesulfonamide], 34 nM.
In the case of `CN(C)CC[C@H](CSc1ccccc1)Nc1ccc(S(=O)(=O)Nc2ncnc3c2CCN(C2CCN(Cc4ccccc4-c4ccc(F)cc4)CC2)C3)cc1S(=O)(=O)C(F)(F)F` [Example 5, (R)-4-(4-(dimethylamino)-1-(phenylthio)butan-2-ylamino)-N-(7-(1-((4′-fluorobiphenyl-2-yl)methyl)piperidin-4-yl)-5,6,7,8-tetrahydropyrido[3,4-d]pyrimidin-4-yl)-3-(trifluoromethylsulfonyl)benzenesulfonamide], the IC50 is 25 nM.
The figure for `CN(C)CC[C@H](CSc1ccccc1)Nc1ccc(S(=O)(=O)Nc2nc(C(F)(F)F)nc3c2CCN(C2CCN(Cc4ccccc4-c4ccc(Cl)cc4)CC2)C3)cc1[N+](=O)[O-]` [Example 71, (R)-N-(7-(1-((4′-chlorobiphenyl-2-yl)methyl)piperidin-4-yl)-2-(trifluoromethyl)-5,6,7,8-tetrahydropyrido[3,4-d]pyrimidin-4-yl)-4-(4-(dimethylamino)-1-(phenylthio)butan-2-ylamino)-3-nitrobenzenesulfonamide] is 20 nM.
The figure for `O=S(=O)(Nc1ncnc2c1CCN(C1CCN(Cc3ccccc3-c3ccc(Cl)cc3)CC1)C2)c1ccc(N[C@H](CCN2CCOCC2)CSc2ccccc2)c(S(=O)(=O)C(F)(F)F)c1` [Example 9, (R)-N-(7-(1((4′-chlorobiphenyl-2-yl)methyl)piperidin-4-yl)-5,6,7,8-tetrahydropyrido[3,4-d]pyrimidin-4-yl)-4-(4-morpholino-1-(phenylthio)butan-2-ylamino)-3-(trifluoromethylsulfonyl)benzenesulfonamide] is 144 nM; for `CN(C)CC[C@H](CSc1ccccc1)Nc1ccc(S(=O)(=O)Nc2nc(C(F)(F)F)nc3c2CCN(C2CCN(Cc4ccccc4-c4ccc(Cl)cc4)CC2)C3)cc1S(=O)(=O)C(F)(F)F` [Example 67, (R)-N-(7-(1((4′-chlorobiphenyl-2-yl)methyl)piperidin-4-yl)-2-(trifluoromethyl)-5,6,7,8-tetrahydropyrido[3,4-d]pyrimidin-4-yl)-4-(4-(dimethylamino)-1-(phenylthio)butan-2-ylamino)-3-(trifluoramethylsulfonyl)benzenesulfonamide] it is 42 nM; for `CN(C)CC[C@H](CSc1ccccc1)Nc1ccc(S(=O)(=O)Nc2ncnc3c2CCN(C2CCN(Cc4c(F)cccc4-c4ccc(Cl)cc4)CC2)C3)cc1S(=O)(=O)C(F)(F)F` [Example 21, (R)-N—-(7-(1-((4′-chloro-3-fluorobiphenyl-2-yl)methyl)piperidin-4-yl)-5,6,7,8-tetrahydropyrido[3,4-d]pyrimidin-4-yl)-4-(4-(dimethylamino)-1-(phenylthio)butan-2-ylamino)-3-(trifluoromethylsulfonyl)benzenesulfonamide] it is 30 nM.
The figure for `CN(C)CC[C@H](CSc1ccccc1F)Nc1ccc(S(=O)(=O)Nc2ncnc3c2CCN(C2CCN(Cc4ccccc4-c4ccc(Cl)cc4)CC2)C3)cc1S(=O)(=O)C(F)(F)F` [Example 47, N-{7-[1-(4′-Chloro-biphenyl-2-ylmethyl)-piperidin-4-yl]-5,6,7,8-tetrahydro-pyrido[3,4-d]pyrimidin-4-yl}-4-[(R)-3-dimethylamino-1-(2-fluoro-phenylsulfanylmethyl)-propylamino]-3-trifluoromethanesulfonyl-benzene sulfonamide] is 25 nM.
